Laboratory results from patent US6998144B2, “Method of improving sweetness delivery of sucralose” (McNeil-PPC, Inc., priority 1998, dated 2006).
Residues, ends and D or L forms follow the SMILES beside them.

How the values were obtained:
trained evaluators = test: Determination of equally sweet levels in bottled water by a panel of six trained evaluators; format: in vivo; conditions: for equally sweet level: sweetener alone in bottled water
From the text: A panel of six trained evaluators determined equally sweet levels of sucralose, sucralose+DHB, aspartame, and aspartame+DHB, all in bottled water. […] Previous evaluations had shown 15 ppm DHB as optimal for taste alteration in sucralose products. Greater than 50 ppm DHB, in pure water solutions, has a slightly sweet taste and contributes to the total taste of the solution.

trained panelists = test: Sweetness time-intensity study of equally sweet solutions, 12 trained panelists; format: in vivo
Description: The data in Table 1 (“STIME”) in the Examples below correlate with the curves shown in this Figure. Imax: maximum intensity recorded. Tmax: first time that maximum intensity was recorded. Tend: last time that a non-zero intensity was recorded. Tdec50: last time that an intensity greater than 50% of Imax was recorded (i.e. the time at which the intensity had decreased to 50% of Imax). Tdec10: same as for Tdec50, but at 10% of Imax. Area: area under the curve. Tdecline: time interval from Tmax to Tdec10. The experiments giving rise to the data in this Figure and Table 1 are described in Example 1 below.
The data in Table 2 (“ATIME”) in the Examples below correlate with the curves shown in this Figure. These curve parameters, as shown in the Table, are defined as per those in FIG. 1. The experiments giving rise to the data in this Figure are described in Example 1 below.
For sweetness time-intensity studies, room temperature equally sweet solutions were presented to 12 trained panelists. The panelists had been screened for general sensory acuity and trained in general methods for sweetener assessment as well as time-intensity methods. […]
The data collected by the computer were read every second, for a total of 180 data points per tasting. Mean panelist response was calculated for each time data point. […]

| Structure (SMILES) | equally sweet level (trained evaluators) [ppm] | sweetness delivery profile of aspartame (trained panelists; effect of DHB on aspartame) | length of time during which sucralose sweetness is perceived (trained panelists; effect of DHB on sucralose) | DHB level that has a slightly sweet taste and contributes to the total taste (trained evaluators; pure water solutions) | DHB level optimal for taste alteration (trained evaluators; sucralose products, previous evaluations) [ppm] |
| --- | --- | --- | --- | --- | --- |
| OC[C@H]1O[C@H](O[C@]2(CCl)O[C@H](CCl)[C@@H](O)[C@@H]2O)[C@H](O)[C@@H](O)[C@H]1Cl [Sample 1, 1,6-dichloro-1,6-dideoxy-β-D-fructofuranosyl-4-chloro-4-deoxy-α-D-galactopyranoside, reference compound] | 200 |  |  |  |  |
| O=C(O)c1ccc(O)cc1O [DHB, 2,4-dihydroxybenzoic acid] |  | does not alter | significantly reduces | Greater than 50 ppm | 15 |
| COC(=O)[C@H](Cc1ccccc1)NC(=O)[C@@H](N)CC(=O)O [Sample 1, N-L-α-aspartyl-L-phenylalanine methyl ester, reference compound] (H-Asp-Phe-OMe) | 550 |  |  |  |  |
